Measurements from patent publication US10954243B2, “Substituted heterocyclic inhibitors of PTPN11” (NAVIRE PHARMA, INC., priority 2018, dated 2021).
Read-outs that look alike come from different tables or passages of the source.

Columns and labels:
[1] = target: PTPN11-E76K mutant enzyme (Homo sapiens (Human), UniProt Q06124, E76K); experiment: PTPN11 enzymatic assay (DiFMUP phosphatase activity); format: biochemical; settings: full length PTPN11-E76K mutant, 250 pM enzyme, DiFMUP 50 μM substrate
PTPN11-E76K mutant enzyme, sequence (Q06124 whole entry E76K): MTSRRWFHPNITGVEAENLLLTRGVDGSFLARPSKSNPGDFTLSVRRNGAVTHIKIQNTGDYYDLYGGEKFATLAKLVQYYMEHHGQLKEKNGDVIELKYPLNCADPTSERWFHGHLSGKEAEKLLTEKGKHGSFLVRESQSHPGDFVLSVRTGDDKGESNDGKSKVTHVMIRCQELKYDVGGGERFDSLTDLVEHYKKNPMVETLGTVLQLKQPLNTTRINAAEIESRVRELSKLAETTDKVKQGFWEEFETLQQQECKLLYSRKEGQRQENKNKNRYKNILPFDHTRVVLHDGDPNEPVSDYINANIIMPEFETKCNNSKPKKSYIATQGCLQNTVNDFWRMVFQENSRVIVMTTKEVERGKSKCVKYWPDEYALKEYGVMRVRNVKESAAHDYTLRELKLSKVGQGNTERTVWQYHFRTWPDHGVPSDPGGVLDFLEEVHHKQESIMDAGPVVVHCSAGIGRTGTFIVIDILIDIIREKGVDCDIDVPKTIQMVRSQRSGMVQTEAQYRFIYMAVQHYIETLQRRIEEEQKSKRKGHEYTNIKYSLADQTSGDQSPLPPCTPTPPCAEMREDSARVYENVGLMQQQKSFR
Description: Reaction was initiated by addition of DiFMUP (50 μM) at room temperature in 384-well black plate with a final reaction volume of 20 uL in assay buffer. After 1 hour, DiFMUP fluorescence signal was measured (Ex:340/Em:460) using Envision plate reader. Dose-response curves were analyzed using IC50 regression curve fitting (GeneData Screener). Curves were normalized to a high controls without inhibitor, and low controls without enzyme.

KYSE-520 cells = experiment: pERK AlphaScreen; format: cell-based; settings: Homo sapiens
Description: KYSE-520 cells (10 k cells/well) were grown in 384-well plate in 20 uL of medium (RPMI-1640, without phenol red, containing 10% FBS) at 37° C. with 5% CO2 overnight. DMSO (control) or increasing concentrations of compounds were diluted in medium, added to the 384-well plate (5 uL/well, final DMSO concentration of 1%), and cells were then incubated with compounds for 2 hr. Phospho-ERK levels were measured using phospho-ERK1/2 AlphaScreen SureFire (PerkinElmer, TGRESB10K) following manufacturer's recommendations. Dose-response curves were analyzed using IC50 regression curve fitting (GeneData Screener). Curves were normalized to a high control without inhibitor (DMSO only), and low control (1 μM selumetinib).

[2] = KYSE-520 cells, 2 hr incubation, phospho-ERK1/2 AlphaScreen SureFire, read-out: pERK Avg IC50
[3] = KYSE-520, 2 h, read-out: pERK Avg IC50 (nM)

Compound | IC50 [1] | IC50 (KYSE-520 cells; [2]) | IC50 (KYSE-520 cells; [3])
CC1(N)CCN(c2nc3[nH]nc(-c4cccc(Cl)c4Cl)c3nc2-c2cc[nH]n2)CC1 [Example 5, 1-(3-(2,3-dichlorophenyl)-5-(1H-pyrazol-3-yl)-1H-pyrazolo[3,4-b]pyrazin-6-yl)-4-methylpiperidin-4-amine] | 0.397 µM | 1970 nM | 
CC1(N)CCN(c2nc3[nH]nc(-c4cccc(Cl)c4Cl)c3nc2C#N)CC1 [Example 4, 6-(4-amino-4-methylpiperidin-1-yl)-3-(2,3-dichlorophenyl)-1H-pyrazolo[3,4-b]pyrazine-5-carbonitrile] | 0.465 µM |  | 
CC1(N)CCN(c2nc3[nH]nc(-c4cccc(Cl)c4Cl)c3nc2O)CC1 [Example 3, 6-(4-amino-4-methylpiperidin-1-yl)-3-(2,3-dichlorophenyl)-1H-pyrazolo[3,4-b]pyrazin-5-ol] | 0.96 µM | 2000 nM | 
CNc1nccc(-c2n[nH]c3nc(N4CCC5(CC4)CO[C@@H](C)[C@H]5N)c(CO)nc23)c1Cl [Example 20, (6-((3S,4S)-4-Amino-3-methyl-2-oxa-8-azaspiro[4.5]decan-8-yl)-3-(3-chloro-2-(methylamino)pyridin-4-yl)-1H-pyrazolo[3,4-b]pyrazin-5-yl)methanol] | 0.003 µM | 2 nM | 
CC(O)c1nc2c(-c3cccc(Cl)c3Cl)n[nH]c2nc1N1CCC(C)(N)CC1 (stereo not drawn) [Example 12, 1-(6-(4-amino-4-methylpiperidin-1-yl)-3-(2,3-dichlorophenyl)-1H-pyrazolo[3,4-b]pyrazin-5-yl)ethanol] | 0.372 µM | 326 nM | 
COc1nc2c(-c3cccc(Cl)c3Cl)n[nH]c2nc1N1CCC(C)(N)CC1 [Example 6, 1-(3-(2,3-dichlorophenyl)-5-methoxy-1H-pyrazolo[3,4-b]pyrazin-6-yl)-4-methylpiperidin-4-amine bis(2,2,2-trifluoroacetate)] | 0.95 µM |  | 3820 nM
C[C@@H]1OCC2(CCN(c3nc4[nH]nc(-c5cccc(Cl)c5Cl)c4nc3CO)CC2)[C@@H]1N [Example 16, (6-((3S,4S)-4-amino-3-methyl-2-oxa-8-azaspiro[4.5]decan-8-yl)-3-(2,3-dichlorophenyl)-1H-pyrazolo[3,4-b]pyrazin-5-yl)methanol] |  | 2 nM | 
C[C@@H]1OCC2(CCN(c3nc4[nH]nc(-c5cccc(OC6COC6)c5Cl)c4nc3CO)CC2)[C@@H]1N [Example 21, (6-((3S,4S)-4-amino-3-methyl-2-oxa-8-azaspiro[4.5]decan-8-yl)-3-(2-chloro-3-(oxetan-3-yloxy)phenyl)-1H-pyrazolo[3,4-b]pyrazin-5-yl)methanol] | 0.558 µM | 2710 nM | 
CCNc1nccc(-c2n[nH]c3nc(N4CCC5(CC4)CO[C@@H](C)[C@H]5N)c(C)nc23)c1Cl [Example 18, (3S,4S)-8-(3-(3-chloro-2-(ethylamino)pyridin-4-yl)-5-methyl-1H-pyrazolo[3,4-b]pyrazin-6-yl)-3-methyl-2-oxa-8-azaspiro[4.5]decan-4-amine 2,2,2-trifluoroacetate] | 0.009 µM |  | 20 nM
Cc1nc2c(-c3cccc(Cl)c3Cl)n[nH]c2nc1N1CCC(C)(N)CC1 [Example 1, 1-(3-(2,3-dichlorophenyl)-5-methyl-1H-pyrazolo[3,4-b]pyrazin-6-yl)-4-methylpiperidin-4-amine] | 0.068 µM | 93 nM | 
CC1(N)CCN(c2nc3[nH]nc(-c4cccc(Cl)c4Cl)c3nc2C(N)=O)CC1 [Example 8, 6-(4-amino-4-methylpiperidin-1-yl)-3-(2,3-dichlorophenyl)-1H-pyrazolo[3,4-b]pyrazine-5-carboxamide] | 0.09 µM |  | 
CC1(N)CCN(c2nc3[nH]nc(-c4cccc(Cl)c4Cl)c3nc2Br)CC1 [Example 2, 1-(5-bromo-3-(2,3-dichlorophenyl)-1H-pyrazolo[3,4-b]pyrazin-6-yl)-4-methylpiperidin-4-amine] | 0.317 µM | 580 nM | 
CC1(N)CCN(c2nc3[nH]nc(-c4cccc(Cl)c4Cl)c3nc2CF)CC1 [Example 15, 1-(3-(2,3-dichlorophenyl)-5-(fluoromethyl)-1H-pyrazolo[3,4-b]pyrazin-6-yl)-4-methylpiperidin-4-amine] | 0.001 µM | 0.4 nM | 
CCNc1nccc(-c2n[nH]c3nc(N4CCC5(CC4)CO[C@@H](C)[C@H]5N)c(CO)nc23)c1Cl [Example 17, (6-((3S,4S)-4-amino-3-methyl-2-oxa-8-azaspiro[4.5]decan-8-yl)-3-(3-chloro-2-(ethylamino)pyridin-4-yl)-1H-pyrazolo[3,4-b]pyrazin-5-yl)methanol] |  | 9 nM | 
CNc1nccc(-c2n[nH]c3nc(N4CCC(C)(N)CC4)c(CO)nc23)c1Cl [Example 11, (6-(4-amino-4-methylpiperidin-1-yl)-3-(3-chloro-2-(methylamino)pyridin-4-yl)-1H-pyrazolo[3,4-b]pyrazin-5-yl)methanol] | 0.017 µM |  | 
CCNc1nccc(-c2n[nH]c3nc(N4CCC5(CC4)CO[C@@H](C)[C@H]5N)c(Cl)nc23)c1Cl [Example 19, (3S,4S)-8-(5-Chloro-3-(3-chloro-2-(ethylamino)pyridin-4-yl)-1H-pyrazolo[3,4-b]pyrazin-6-yl)-3-methyl-2-oxa-8-azaspiro[4.5]decan-4-amine] | 0.006 µM | 1 nM | 
CC1(N)CCN(c2nc3[nH]nc(-c4cccc(Cl)c4Cl)c3nc2C(=O)NO)CC1 [Example 13, 6-(4-Amino-4-methylpiperidin-1-yl)-3-(2,3-dichlorophenyl)-N-hydroxy-1H-pyrazolo[3,4-b]pyrazine-5-carboxamide] | 0.224 µM | 704 nM | 
CC1(N)CCN(c2nc3[nH]nc(-c4cccc(Cl)c4Cl)c3nc2CO)CC1 [Example 7, (6-(4-amino-4-methylpiperidin-1-yl)-3-(2,3-dichlorophenyl)-1H-pyrazolo[3,4-b]pyrazin-5-yl)methanol] | 0.019 µM | 97 nM | 
CC1(N)CCN(c2nc3[nH]nc(-c4cccc(Cl)c4Cl)c3nc2Cl)CC1 [Example 10, 1-(5-chloro-3-(2,3-dichlorophenyl)-1H-pyrazolo[3,4-b]pyrazin-6-yl)-4-methylpiperidin-4-amine] | 0.277 µM | 502 nM | 
C[C@@H]1OCC2(CCN(c3nc4[nH]nc(-c5ccnc(OC6COC6)c5Cl)c4nc3CO)CC2)[C@@H]1N [Example 22, (6-((3S,4S)-4-amino-3-methyl-2-oxa-8-azaspiro[4.5]decan-8-yl)-3-(3-chloro-2-(oxetan-3-yloxy)pyridin-4-yl)-1H-pyrazolo[3,4-b]pyrazin-5-yl)methanol] | 0.048 µM | 3370 nM | 
CC1(N)CCN(c2nc3[nH]nc(-c4cccc(Cl)c4Cl)c3nc2C(F)F)CC1 [Example 14, 1-(3-(2,3-dichlorophenyl)-5-(difluoromethyl)-1H-pyrazolo[3,4-b]pyrazin-6-yl)-4-methylpiperidin-4-amine] | 0.022 µM | 36 nM | 
CC1(N)CCN(c2nc3[nH]nc(-c4cccc(Cl)c4Cl)c3nc2C=O)CC1 [Example 9, 6-(4-amino-4-methylpiperidin-1-yl)-3-(2,3-dichlorophenyl)-1H-pyrazolo[3,4-b]pyrazine-5-carbaldehyde] | 0.19 µM | 647 nM | 
